From patent US20110060000A1, “ACRIDINE ANALOGS IN THE TREATMENT OF GLIOMAS” (priority 2009, published 2011)
Entries after “also recorded” stand apart in the source; their conditions may differ.

Key:
[1] = system: caspase 12; experiment: Procaspase 12 cleavage in astrocytes; type: cell-based, rat
Description: (§1) Cells were treated with the agents as indicated in the x axis. Subsequently cells were harvested and protein was extracted and then separated via SDS-PAGE and immunoblotted. The arrow highlights the 45 kDa band that results from cleavage of procaspase 12 and corresponding to the active caspase.
(§2) Thereafter, cells were harvested and protein extracted. Procaspase 12 band at 65 kDa was identified. In some of the treatments, the active product at 45 kDa was also detected. […] Conversely, in C6, higher GRP78 levels and the cell environment reflect significant caspase activation. […] Caspase activation in ERSR conditions was also confirmed with a TUNEL based apoptosis detection system in C6. C6 were treated with THAP for 24 hours and thereafter processed for TUNEL accordingly to manufacturer instructions. Staurosporin, a well known inducer of apoptosis in glial cells, was also included as a positive control. High resolution images of the experiments were acquired and image morphometric analysis was performed to determine quantitative parameters of the staining as previously described (Pascale et al., 2004, “Translocation of protein kinase C-betaII in astrocytes requires organized actin cytoskeleton and is not accompanied by synchronous RACK1 relocation.” Glia 46(2): 169-82). […]

[2] = system: C6; experiment: [Ca2+]i measurement in C6; type: cell-based, rat
From the text: (§3) (Statistical analysis it is shown in the inset. Values at the peak of the response have been analyzed using ANOVA followed by T-test, ** indicate P<0.01.).
(§4) Ca^2+ mobilization from ER was caused using an agonist acting via inositol trisphosphate elevation, mimicking physiological responses. In these conditions the dynamics of Ca^2+ transients were observe in these two cell lines. It appears evident that the plateau phase in C6 is consistently larger than in astrocytes.
(§5) Panel A: Challenge of astrocytes with ATP show the unchanged typical spike and plateau response. Panel B: In C6 an oscillatory pattern is readily detectable in response to treatment with TUN.
Tools and protocols have been developed to cleanly observe capacitative Ca^2+ entry (CCE), the phenomenon that allows the replenishment of intracellular Ca^2+ (ICS) stores and make quantitative and qualitative assessments. In particular, in astrocytes, capacitative Ca^2+ entry happens in absence of cytoplasmic Ca^2+ concentration ([Ca^2+]i) elevation (Grimaldi; 2006)(FIG. 1). […] The study was designed to investigate if there was a difference between astrocytes and glial cancer cells in this distinctive homeostatic pattern. The findings presented in this study, indicate that there are striking differences between glial cells and their cancer counterpart. The model utilizes rat cells but the observations extend and apply to human glioma cells as well. When the responses of normal astrocytes and C6 cells to thapsigargin (THAP), an agent able to block SERCA, therefore causing the release of Ca^2+ from the ER, were compared it was evident that C6 was more sensitive to the THAP (FIG. 2). However, the difference can be ascribed to one of many possibilities. […]
(§6) This phase is dependent on the balance of Ca^2+ influx triggered by store depletion and the reuptake in the ER due to SERCA activity. […] To investigate the role of influx triggered by ICS depletion, CCE was analyzed following THAP-induced depletion of ICS. […]

[3] = system: GRP78; experiment: GRP78 protein expression (SDS-PAGE, immunoblot) in C6; type: cell-based, rat; details: for GRP78 expression in C6 after challenge: brief exposure (8 h), FIG. 11; for GRP78 protein expression in C6: graded concentrations, THAP 24 hours, TUN 8 hours
Description: (§7) Astrocytes and C6 were exposed to graded concentration of THAP as indicated in the captions for 24 hours. Thereafter, protein were extracted and run on a SDS-PAGE and immunoblotted with an anti-GRP78 antibody. Filters were exposed to ECL and films were impressed and developed (Panel B). Films were digitalized using a high resolution scanner and analyzed used imageJ (NIH). Densitometric values were averaged and plotted in the graph (Panel A). Loading conditions were checked using GAPDH housekeeping gene.
(§8) Astrocytes and C6 were exposed to TUN for 8 hours at concentrations ranging from 1.25 μg/ml to 10 μg/ml. Proteins were extracted, separated on a SDS-PAGE and immunoblotted. Filters were exposed to ECL and used to impress films (Panel B). Developed films were subsequently digitized with a high resolution scanner and analyzed with the software ImageJ (NIH). Densitometric values were averaged and plotted in the graph (Panel A).
(§9) Cells were treated as specified in the graph labeling. It is evident that glioma cells have enhanced GRP78 expression than astrocytes regardless of the challenging agent. N.T.=untreated; D=DMSO; T=TUN; Th=THAP.

[4] = system: caspase 12; experiment: Procaspase 12 cleavage in C6; type: cell-based, rat
Description: as §1, §2

[5] = system: GRP78; experiment: GRP78 protein expression in U87-MG; type: cell-based, human; details: brief exposure (8 h), FIG. 11
Description: as §9
Also it has been speculated that the increased higher constitutive expression in glioma cells determines their resilience to the hostile growth environment, to pharmacological treatment and to radiotherapy. However, these studies were performed comparing human astrocytes from repositories to several human malignant cell lines both commercially available or from patients. […] Therefore, in light of the preliminary observations, experiments were conducted in order to further investigate the phenomenon with the aim to better understand it. Experiments were performed using primary rat astrocytes and their glioma counterpart, the C6 cells; also, human glioma cells, such as U87-MG, were used. The latter have been widely used in assessing human glioma properties. Unstimulated expression levels of GRP78 were compared in these cells. In FIG. 11 it is possible to view that unstimulated GRP78 expression in these three cell types is very low.

[6] = system: astrocytes; experiment: [Ca2+]i measurement in astrocytes; type: cell-based, rat
From the text: as §3, §4, §5
Tools and protocols have been developed to cleanly observe capacitative Ca^2+ entry (CCE), the phenomenon that allows the replenishment of intracellular Ca^2+ (ICS) stores and make quantitative and qualitative assessments. In particular, in astrocytes, capacitative Ca^2+ entry happens in absence of cytoplasmic Ca^2+ concentration ([Ca^2+]i) elevation (Grimaldi; 2006)(FIG. 1). […]
as §6

[7] = system: GRP78; experiment: GRP78 protein expression (SDS-PAGE, immunoblot) in astrocytes; type: cell-based, rat; details: for GRP78 levels in astrocytes after challenge: brief exposure (8 h), FIG. 11; for GRP78 protein expression in astrocytes: graded concentrations, THAP 24 hours, TUN 8 hours
Description: as §7, §8, §9

Row | Compound | activation of caspase 12 in astrocytes [1] | [Ca2+]i elevation in C6 ([2]; 2 μM THAP) | EC50 ([3]; Rattus norvegicus, Astrocyte, stated in GRP78 expression experiment, astrocytes and C6, read-out: EC50 of the substance) [nM] | GRP78 expression in C6 after challenge [3] | GRP78 protein expression in C6 [3] | activation of caspase 12 (45 kDa active product) in C6 [4] | GRP78 expression in U87-MG after challenge [5] | [Ca2+]i elevation in astrocytes ([6]; 2 μM THAP) | GRP78 levels in astrocytes after challenge [7] | GRP78 protein expression in astrocytes [7] | Ca2+ transients in C6 after TUN pretreatment ([2]; challenge with ATP) | Ca2+ transients in astrocytes after TUN pretreatment ([6]; challenge with ATP)
1 | C/C=C(/C)C(=O)O[C@H]1C(C)=C2[C@H]([C@@H]1OC(=O)CCCCCCC)[C@@](C)(OC(C)=O)C[C@H](OC(=O)CCC)[C@@]1(O)[C@H]2OC(=O)[C@@]1(C)O [THAP, thapsigargin] | completely unresponsive | significantly higher than in astrocytes | 2 to 5 | enhanced significantly | stronger elevation; also recorded: dramatically higher elevation of GRP78 | significant activation of caspase 12 | enhanced significantly | caused elevation of [Ca^2+]i | always significantly lower than levels reached in C6 and U87-MG | increased GRP78 expression | – | –
2 | tunicamycin | completely unresponsive | – | – | enhanced significantly | concentration related elevation of GRP78 protein expression; also recorded: larger in C6 than in astrocytes at every concentration tested | significant activation of caspase 12 | enhanced significantly | – | always significantly lower than levels reached in C6 and U87-MG | concentration related elevation of GRP78 protein expression | appearance of [Ca^2+]i oscillations at high frequency and high amplitude | transients were not changed
